Source: ChEMBL document CHEMBL1155543 (Bioorg Med Chem Lett, 2010)

Legend:
Carbonic anhydrase 3 = Carbonic anhydrase 3 (Homo sapiens, UniProt P07451)
Carbonic anhydrase 12 = Carbonic anhydrase 12 (Homo sapiens, UniProt O43570)
Carbonic anhydrase 14 = Carbonic anhydrase 14 (Homo sapiens, UniProt Q9ULX7)
Carbonic anhydrase 4 = Carbonic anhydrase 4 (Homo sapiens, UniProt P22748)
[1] = molecular target: Carbonic anhydrase 5A, mitochondrial (Homo sapiens, UniProt P35218)
[2] = molecular target: Carbonic anhydrase 5B, mitochondrial (Homo sapiens, UniProt Q9Y2D0)
Carbonic anhydrase 15 = molecular target: T1, Carbonic anhydrase 15 (Mus musculus, UniProt Q99N23)
T1 sequence (Q99N23 whole entry): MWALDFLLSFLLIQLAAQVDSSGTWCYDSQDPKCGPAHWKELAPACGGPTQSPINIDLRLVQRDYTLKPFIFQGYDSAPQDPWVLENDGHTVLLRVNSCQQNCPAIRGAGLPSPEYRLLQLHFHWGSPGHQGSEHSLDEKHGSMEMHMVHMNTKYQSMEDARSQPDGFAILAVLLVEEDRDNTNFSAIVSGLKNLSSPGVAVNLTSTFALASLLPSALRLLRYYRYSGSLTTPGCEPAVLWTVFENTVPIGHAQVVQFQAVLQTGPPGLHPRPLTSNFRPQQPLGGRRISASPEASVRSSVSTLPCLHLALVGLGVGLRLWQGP

Carbonic anhydrase 7 = Carbonic anhydrase 7 (Homo sapiens, UniProt P43166)
Carbonic anhydrase 13 = Carbonic anhydrase 13 (Mus musculus, UniProt Q9D6N1)
Carbonic anhydrase 6 = Carbonic anhydrase 6 (Homo sapiens, UniProt P23280)
Carbonic anhydrase 6, sequence (P23280 whole entry): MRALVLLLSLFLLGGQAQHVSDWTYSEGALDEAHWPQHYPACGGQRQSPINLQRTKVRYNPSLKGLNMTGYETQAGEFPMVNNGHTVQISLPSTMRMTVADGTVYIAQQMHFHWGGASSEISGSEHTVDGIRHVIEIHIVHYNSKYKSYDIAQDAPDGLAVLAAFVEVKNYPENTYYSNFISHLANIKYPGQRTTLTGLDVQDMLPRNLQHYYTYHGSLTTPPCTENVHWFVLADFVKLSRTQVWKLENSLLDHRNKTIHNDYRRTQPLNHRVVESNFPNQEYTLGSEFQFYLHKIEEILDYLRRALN

Carbonic anhydrase 3, sequence (P07451 whole entry): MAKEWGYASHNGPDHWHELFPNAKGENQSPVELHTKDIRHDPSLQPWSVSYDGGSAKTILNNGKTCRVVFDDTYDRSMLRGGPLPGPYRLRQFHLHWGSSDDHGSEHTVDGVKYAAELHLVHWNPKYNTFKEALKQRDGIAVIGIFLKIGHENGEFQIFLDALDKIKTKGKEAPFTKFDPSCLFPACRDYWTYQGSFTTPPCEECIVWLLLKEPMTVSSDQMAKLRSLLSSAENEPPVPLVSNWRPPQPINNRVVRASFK
Carbonic anhydrase 4, sequence (P22748 whole entry): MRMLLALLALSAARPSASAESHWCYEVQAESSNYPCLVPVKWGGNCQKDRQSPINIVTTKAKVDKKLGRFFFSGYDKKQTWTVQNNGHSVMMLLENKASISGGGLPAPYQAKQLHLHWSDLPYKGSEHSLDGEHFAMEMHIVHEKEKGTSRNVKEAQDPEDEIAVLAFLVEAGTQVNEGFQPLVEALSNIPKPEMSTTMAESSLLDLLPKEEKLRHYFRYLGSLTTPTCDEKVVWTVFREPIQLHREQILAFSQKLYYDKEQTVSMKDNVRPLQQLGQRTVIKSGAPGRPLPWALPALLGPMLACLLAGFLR
Carbonic anhydrase 12, sequence (O43570 whole entry): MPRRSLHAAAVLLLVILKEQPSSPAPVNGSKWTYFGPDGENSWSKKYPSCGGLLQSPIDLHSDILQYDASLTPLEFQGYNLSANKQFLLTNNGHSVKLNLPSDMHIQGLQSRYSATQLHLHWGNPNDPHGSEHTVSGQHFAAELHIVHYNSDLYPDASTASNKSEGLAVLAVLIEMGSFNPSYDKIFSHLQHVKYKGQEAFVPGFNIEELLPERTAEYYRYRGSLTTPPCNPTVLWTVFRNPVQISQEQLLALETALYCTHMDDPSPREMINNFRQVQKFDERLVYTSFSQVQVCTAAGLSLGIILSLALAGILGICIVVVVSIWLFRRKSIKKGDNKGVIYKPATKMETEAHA
Carbonic anhydrase 14, sequence (Q9ULX7 whole entry): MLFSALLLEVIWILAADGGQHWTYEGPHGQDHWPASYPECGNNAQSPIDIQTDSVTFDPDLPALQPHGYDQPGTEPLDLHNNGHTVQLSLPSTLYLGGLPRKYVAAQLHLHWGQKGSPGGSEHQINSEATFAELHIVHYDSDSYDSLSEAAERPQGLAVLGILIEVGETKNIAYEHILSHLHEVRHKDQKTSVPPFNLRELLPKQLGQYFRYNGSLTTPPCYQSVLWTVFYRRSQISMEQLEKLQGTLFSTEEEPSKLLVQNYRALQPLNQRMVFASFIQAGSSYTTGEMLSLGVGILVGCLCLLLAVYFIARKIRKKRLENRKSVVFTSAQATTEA
Carbonic anhydrase 5B, mitochondrial, sequence (Q9Y2D0 whole entry): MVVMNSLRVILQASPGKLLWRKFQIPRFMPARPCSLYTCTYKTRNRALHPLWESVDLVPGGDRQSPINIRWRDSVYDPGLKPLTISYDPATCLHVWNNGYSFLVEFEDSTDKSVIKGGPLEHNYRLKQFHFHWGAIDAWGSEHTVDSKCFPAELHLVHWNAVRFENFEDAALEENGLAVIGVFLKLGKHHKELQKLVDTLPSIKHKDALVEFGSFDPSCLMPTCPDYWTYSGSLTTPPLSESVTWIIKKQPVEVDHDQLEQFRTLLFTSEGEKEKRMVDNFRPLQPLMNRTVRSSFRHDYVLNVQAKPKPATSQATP
Carbonic anhydrase 5A, mitochondrial, sequence (P35218 whole entry): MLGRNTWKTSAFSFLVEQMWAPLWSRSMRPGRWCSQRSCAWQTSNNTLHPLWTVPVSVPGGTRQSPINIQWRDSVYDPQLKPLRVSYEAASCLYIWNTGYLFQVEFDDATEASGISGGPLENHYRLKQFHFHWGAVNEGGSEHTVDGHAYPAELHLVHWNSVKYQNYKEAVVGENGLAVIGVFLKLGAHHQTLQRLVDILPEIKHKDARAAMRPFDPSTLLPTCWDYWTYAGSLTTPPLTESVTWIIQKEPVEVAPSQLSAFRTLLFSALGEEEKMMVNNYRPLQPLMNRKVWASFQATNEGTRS
Carbonic anhydrase 7, sequence (P43166 whole entry): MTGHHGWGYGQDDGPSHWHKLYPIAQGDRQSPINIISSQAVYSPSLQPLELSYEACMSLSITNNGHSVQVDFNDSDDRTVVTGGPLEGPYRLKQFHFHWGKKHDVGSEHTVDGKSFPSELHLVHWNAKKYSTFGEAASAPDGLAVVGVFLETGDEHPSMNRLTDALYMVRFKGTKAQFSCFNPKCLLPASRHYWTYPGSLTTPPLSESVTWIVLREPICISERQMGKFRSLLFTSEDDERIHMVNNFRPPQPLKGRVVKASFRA
Carbonic anhydrase 13, sequence (Q9D6N1 whole entry): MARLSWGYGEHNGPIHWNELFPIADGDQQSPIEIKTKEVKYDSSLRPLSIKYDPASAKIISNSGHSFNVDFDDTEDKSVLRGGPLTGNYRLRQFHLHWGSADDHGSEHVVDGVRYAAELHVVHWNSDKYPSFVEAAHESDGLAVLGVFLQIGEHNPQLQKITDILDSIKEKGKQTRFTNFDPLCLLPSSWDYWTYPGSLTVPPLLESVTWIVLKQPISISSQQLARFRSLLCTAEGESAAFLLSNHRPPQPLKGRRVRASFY

Ki (Carbonic anhydrase 3) [µM] | Ki (Carbonic anhydrase 12) [µM] | Ki (Carbonic anhydrase 14) [µM] | Ki (Carbonic anhydrase 4) [µM] | Ki [1] [µM] | Ki [2] [µM] | Ki (Carbonic anhydrase 15) [µM] | Ki (Carbonic anhydrase 7) [µM] | Ki (Carbonic anhydrase 13) [µM] | Ki (Carbonic anhydrase 6) [µM] | SMILES
1090 |  |  |  |  |  |  |  |  |  | NS(N)(=O)=O [SULFAMIDE]
8.77 | 0.0089 | 0.0071 | 8.62 | 0.087 | 0.075 | 0.089 | 0.084 | 0.994 | 0.749 | CC1(C)OB(c2ccc(NS(N)(=O)=O)cc2)OC1(C)C
4000 |  |  |  |  |  |  |  |  |  | CC1(C)O[C@@H]2[C@@H](CO[C@@]3(CNS(N)(=O)=O)OC(C)(C)O[C@@H]23)O1
